In this assay the target is histone deacetylase (HDAC). The experiment in a line: Inhibition of Histone Deacetylase Enzymatic Activity. The conditions noted are these: substrate Boc-Lys(Ac)-AMC, Fluor-de-Lys developer, 37° C., 20 min; against one or more of HDAC-1 to HDAC-11, SirT1 to SirT7 (isoform not given); read-out: HDAC Inhibitory Activity (IC50). The assay is classed as biochemical. The method, then: The following protocol is used to assay the compounds of the invention. In the assay, the buffer used is 25 mM HEPES, pH 8.0, 137 mM NaCl, 2.7 mM KCl, 1 mM MgCl2 and the substrate is Boc-Lys(Ac)-AMC in a 50 mM stock solution in DMSO. The enzyme stock solution is 4.08 μg/mL in buffer.
The compounds are pre-incubated (2 μl in DMSO diluted to 13 μl in buffer for transfer to assay plate) with enzyme (20 μl of 4.08 μg/mL) for 10 min at room temperature (35 μl pre-incubation volume). The mixture is pre-incubated for 5 min at room temperature. The reaction is started by bringing the temperature to 37° C. and adding 16 μl substrate. Total reaction volume is 50 μl. […] A plate is incubated in the dark for 10 min at room temperature before reading (λEX=360 nm, λEm=470 nm, Cutoff filter at 435 nm).
In the table, “A” indicates inhibitory activity at a concentration of <0.05 μM; “B” indicates inhibitory activity at a concentration >0.05 μM but <0.5 μM, “C” indicates inhibitory activity at >0.5 μM but <2 μM and “D” indicates inhibitory activity at a concentration of >2 μM but <10 μM.
With `CC(C)C[C@H]1NC(=O)c2ccccc2N(CCCCCC(=O)NO)C1=O` [Compound 68b12, 6-((R)-2,3,4,5-tetrahydro-3-isobutyl-2,5-dioxobenzo[e][1,4]diazepin-1-yl)-N-amide], the concentration for half-maximal inhibition (IC50) was 0.05 to 0.5 µM.

With `O=C(NO)c1ccc(CN2C(=O)CNC(=O)[C@H]2Cc2c[nH]c3ccccc23)cc1` [Compound 136a, (R)-4-((2-((1H-Indol-3-yl)methyl)-3,6-dioxopiperazin-1-yl)methyl)-N-hydroxybenzamide], the IC50 was below 0.05 µM.

`O=C(NO)c1cccc(NC(=O)N2c3ccccc3NC(=O)[C@H]2Cc2ccc(F)c(F)c2)c1` [Compound 118, (R)-2-(3,4-difluorobenzyl)-N-(3-(hydroxycarbamoyl)phenyl)-3-oxo-3,4-dihydroquinoxaline-1(2H)-carboxamide]: the IC50 fell in the range of 0.05 to 0.5 µM.

For the molecule `COc1ccc(CN2c3ccccc3NC(=O)C2CCCCCC(=O)NO)cc1` (centres unmarked) [Compound 47a, 6-(1-(4-methoxybenzyl)-1,2,3,4-tetrahydro-3-oxoquinoxalin-2-yl)-N-hydroxyhexanamide], the IC50 lay in the range of 0.05 to 0.5 µM.

Turning to `CC(C)C[C@@H]1NC(=O)c2ccccc2N(CCCCCC(=O)NO)C1=O` [Compound 68b1, 6-((S)-2,3,4,5-tetrahydro-3-isobutyl-2,5-dioxobenzo[e][1,4]diazepin-1-yl)-N-hydroxyhexanamide], the IC50 lay within 0.5 to 2 µM.

Turning to `O=C(CCCCCC1NC(=O)c2ccccc2N(CCc2ccccc2)C1=O)NO` (centres unmarked) [Compound 83, 6-(2,3,4,5-tetrahydro-2,5-dioxo-1-phenethyl-1H-benzo[e][1 ,4]diazepin-3-yl)-N-hydroxyhexanamide], the IC50 lay in the range of 0.5 to 2 µM.

In the case of `CC(C)[C@H]1C(=O)Nc2cc(C(=O)NO)ccc2N1Cc1ccc(C(=O)O)cc1` [Compound 16d, 4-(((S)-7-(hydroxycarbamoyl)-2,3-dihydro-3-isopropyl-2-oxoquinoxalin-4(1H)-yl)methyl)benzoic acid], the IC50 was 2 to 10 µM.

For `O=C(CCCCCC1NC(=O)c2ccccc2N(CCc2c[nH]c3ccccc23)C1=O)NO` (centres unmarked) [Compound 79, 6-(1-(2-(1H-Indol-3-yl)ethyl)-2,3,4,5-tetrahydro-2,5-dioxo-1H-benzo[e][1,4]diazepin-3-yl)-N-hydroxyhexanamide], the half-inhibitory concentration (IC50) fell in the range of 0.05 to 0.5 µM.

As for `CC(C)[C@H]1Nc2ccc(C(=O)NO)cc2NC1=O` [Compound 4e, (R)-1,2,3,4-tetrahydro-N-hydroxy-2-isopropyl-3-oxoquinoxaline-6-carboxamide], the IC50 was 2 to 10 µM.

With `COc1cc(CN2C(=O)C(CCCCCC(=O)NO)NC(=O)c3ccccc32)cc(OC)c1` (centres unmarked) [Compound 81, 6-(1-(3,5-Dimethoxybenzyl)-2,3,4,5-tetrahydro-2,5-dioxo-1H-benzo[e][1,4]diazepin-3-yl)-N-hydroxyhexanamide], the half-maximal inhibitory concentration (IC50) fell in the range of 0.5 to 2 µM.

For `O=C(NO)c1ccc(NC(=O)N2c3ccccc3NC(=O)[C@H]2Cc2ccc(F)c(F)c2)cc1` [Compound 116, (R)-2-(3,4-Difluorobenzyl)-N-(4-(hydroxycarbamoyl)phenyl)-3-oxo-3,4-dihydroquinoxaline-1(2H)-carboxamide], the half-maximal inhibitory concentration (IC50) was below 0.05 µM.

With `COc1ccc(CN2c3ccccc3NC(=O)C2CCCCCC(=O)Nc2ccccc2N)cc1` (centres unmarked) [Compound 47b, 6-(1-(4-methoxybenzyl)-1,2,3,4-tetrahydro-3-oxoquinoxalin-2-yl)-N-(2-aminophenyl)hexanamide], the IC50 was 2 to 10 µM.

As for `CC(C)[C@H]1C(=O)Nc2cc(C(=O)NO)ccc2N1Cc1ccc(O)cc1` [Compound 16b, (S)-1-(4-hydroxybenzyl)-1,2,3,4-tetrahydro-N-hydroxy-2-isopropyl-3-oxoquinoxaline-6-carboxamide], the IC50 fell in the range of 0.5 to 2 µM.

On to `O=C(NO)c1ccc2c(c1)NC(=O)[C@@H](c1ccccc1)NC2=O` [Compound 97j, (R)-N-Hydroxy-2,5-dioxo-3-phenyl-2,3,4,5-tetrahydro-1H-benzo[e][1,4]diazepine-8-carboxamide], for which the IC50 is 2 to 10 µM.

Turning to `O=C(NO)c1ccc(CN2c3ccccc3NC(=O)[C@@H]2Cc2cccs2)cc1` [Compound 54a1, 4-(((S)-2,3-Dihydro-2-oxo-3-((thiophen-2-yl)methyl)quinoxalin-4(1H)-yl)methyl)-N-hydroxybenzamide], the IC50 is 0.05 to 0.5 µM.

Turning to `O=C(NO)c1ccc2c(c1)NC(=O)[C@H](CC1CCCCC1)NC2=O` [Compound 97h, (S)-3-(Cycbohexylmethyl)-N-hydroxy-2,5-dioxo-2,3,4,5-tetrahydro-1H-benzo[e][1,4]diazepine-8-carboxamide], the IC50 was 0.5 to 2 µM.

For the molecule `O=C(NO)c1ccc(CN2c3ccccc3NC(=O)[C@H]2Cc2cccnc2)cc1` [Compound 54b21, (R)—N-hydroxy-4-((3-oxo-2-(pyridin-3-ylmethyl)-3,4-dihydroquinoxalin-1(2H)-yl)methyl)benzamide], the IC50 was below 0.05 µM.

Take `CC(C)(C)OC(=O)CC[C@@H]1C(=O)Nc2ccccc2N1Cc1ccc(C(=O)NO)cc1` [Compound 54b12, (R)-tert-butyl 3-(1-(4-(hydroxycarbamoyl)benzyl)-3-oxo-1,2,3,4-tetrahydroquinoxalin-2-yl)propanoate]: the IC50 is below 0.05 µM.

For the molecule `O=C(CCCCCN1C(=O)[C@H](c2ccccc2)NC(=O)c2ccccc21)NO` [Compound 68b11, 6-((S)-2,3,4,5-tetrahydro-2,5-dioxo-3-phenylbenzo[e][1,4]diazepin-1-yl)-N-hydro-xyhexanamide], the IC50 was in the range of 0.05 to 0.5 µM.

As for `O=C(NO)c1ccc(O[C@H]2C[C@H](C(=O)Nc3cccc4cccnc34)N(C(=O)OCc3ccccc3)C2)cc1` [Compound 109c, (2R,4S)- Benzyl 4-(4-(hydroxycarbamoyl)phenoxy)-2-(quinolin-8-ylcarbainoyl) pyrrolidine-1-carboxylate], the IC50 was in the range of 0.05 to 0.5 µM.

In the case of `CC(C)[C@H]1Nc2ccc(NC(=O)CCCCCCC(=O)NO)cc2NC1=O` [Compound 24e, N1—((R)-1,2,3,4-Tetrahydro-2-isopropyl-3-oxoquinoxalin-6-yl)-N8-hydroxyoctanediamide], the IC50 is below 0.05 µM.

Turning to `CC(C)[C@H]1C(=O)Nc2cc(C(=O)NO)ccc2N1S(=O)(=O)c1cccc2ccccc12` [Compound 18f], the IC50 lay within 0.5 to 2 µM.

In the case of `COc1ccc(CN2c3ccc(NC(=O)CCCCCCC(=O)NO)cc3NC(=O)[C@H]2C(C)C)cc1` [Compound 26e, N1—((R)-1-(4-Methoxybenzyl)-1,2,3,4-tetrahydro-2-isopropyl-3-oxoquinoxalin-6-yl)-N8-hydroxyoctanediamide], the IC50 fell in the range of 0.05 to 0.5 µM.

On to `O=C(NO)c1ccc(CN2c3ccccc3NC(=O)[C@H]2CC2CCCCC2)cc1` [Compound 54b8, (R)-4-((2-(cyclohexylmethyl)-3-oxo-3,4-dihydroquinoxalin-1(2H)-yl)methyl)-N-hydroxybenzamide], for which the IC50 was in the range of 0.05 to 0.5 µM.

For the molecule `O=C(NO)c1ccc(O[C@H]2C[C@@H](C(=O)Nc3cccc4cccnc34)N(C(=O)OCc3ccccc3)C2)cc1` [Compound 109a, (2S,4S)-Benzyl 4-(4-(hydroxycarbamoyl)phenoxy)-2-(quinolin-8-ylcarbamoyl)pyrrolidine-1-carboxylate], the IC50 is 0.05 to 0.5 µM.

For `CC(C)(C)C[C@@H]1NC(=O)c2ccccc2N(CCCCCC(=O)NO)C1=O` [Compound 68b3, 6-((S)-2,3,4,5-tetrahydro-3-neopentyl-2,5-dioxobenzo[e][1,4]diazepin-1-yl)-N-hydroxyhexanamide], the IC50 was 0.05 to 0.5 µM.

Regarding `Cc1cc(C)c(S(=O)(=O)N2c3ccc(C(=O)NO)cc3NC(=O)[C@@H]2C(C)C)c(C)c1` [Compound 18c, (S)—N-hydroxy-2-isopropyl-3-oxo-1-(2,4,6-trimethybenzenesulfonyl)-1,2,3,4-tetrahydroquinoxaline-6-carboxamide], the IC50 was 2 to 10 µM.

For `O=C(NO)c1ccc(O[C@@H]2C[C@@H](C(=O)Nc3cccc4cccnc34)N(C(=O)OCc3ccccc3)C2)cc1` [Compound 109b, (2S,4R)- Benzyl 4-(4-(hydroxycarbamoyl)phenoxy)-2-(quinolin-8-ylcarbamoyl) pyrrolidine-1-carboxylate], the IC50 fell in the range of 0.05 to 0.5 µM.

Take `O=C(NO)c1ccc2c(c1)NC(=O)[C@H](Cc1cn(C(c3ccccc3)(c3ccccc3)c3ccccc3)cn1)N2` [Compound 4g, (S)-1,2,3,4-tetrahydro-N-hydroxy-3-oxo-2-((1-trityl-1H-imidazol-4-yl)methyl)quinoxaline-6-carboxamide]: the IC50 is 2 to 10 µM.

Turning to `O=C(/C=C/c1ccc2c(c1)NC(=O)[C@@H](Cc1c[nH]c3ccccc13)N2)NO` [Compound 66f, (E)-3-((R)-2-((1H-indol-3-yl)methyl)-1,2,3,4-tetrahydro-3-oxoquinoxalin-6-yl)-N-hydroxyacrylamide], the IC50 fell in the range of 0.05 to 0.5 µM.

Regarding `O=C(NO)c1ccc2c(c1)NC(=O)[C@H](Cc1ccccc1)N2` [Compound 4i, (S)-2-Benzyl-1,2,3,4-tetrahydro-N-hydroxy-3-oxoquinoxaline-6-carboxamide], the IC50 lay in the range of 2 to 10 µM.

As for `CC(C)[C@H]1C(=O)Nc2cc(C(=O)NO)ccc2N1S(=O)(=O)c1ccccc1` [Compound 18a, (S)—N-hydroxy-2-isopropyl-3-oxo-1-(phenylsulfonyl)-1,2,3,4-tetrahydroquinoxaline-6-carboxamide], the half-inhibitory concentration (IC50) was 2 to 10 µM.

The record behind these values is patent US20070155730A1, “Benzodiazepine And Benzopiperazine Analog Inhibitors Of Histone Deacetylase” (METHYLGENE, INC., priority 2005, published 2007).
